Data taken from article PMC8371548 (BioTechniques, 2021).
“Also recorded” adds a separate entry of the source.

Key:
H295R cells = test: H295R cell-based steroidogenesis assay; set-up: species or system human; details: for effect on testosterone production in words: 10^−11 to 10^−5 M
AR [1] = details: cited from earlier work; for EC50: read-out: AR-EcoScreen assay EC50, ref Dennis et al. [18]
AR [2] = details: cited from earlier work
androgen receptor (AR) = molecular target: T1, androgen receptor (AR) (Homo sapiens, UniProt P10275); assay type: cell-based
T1 sequence (P10275 1-920): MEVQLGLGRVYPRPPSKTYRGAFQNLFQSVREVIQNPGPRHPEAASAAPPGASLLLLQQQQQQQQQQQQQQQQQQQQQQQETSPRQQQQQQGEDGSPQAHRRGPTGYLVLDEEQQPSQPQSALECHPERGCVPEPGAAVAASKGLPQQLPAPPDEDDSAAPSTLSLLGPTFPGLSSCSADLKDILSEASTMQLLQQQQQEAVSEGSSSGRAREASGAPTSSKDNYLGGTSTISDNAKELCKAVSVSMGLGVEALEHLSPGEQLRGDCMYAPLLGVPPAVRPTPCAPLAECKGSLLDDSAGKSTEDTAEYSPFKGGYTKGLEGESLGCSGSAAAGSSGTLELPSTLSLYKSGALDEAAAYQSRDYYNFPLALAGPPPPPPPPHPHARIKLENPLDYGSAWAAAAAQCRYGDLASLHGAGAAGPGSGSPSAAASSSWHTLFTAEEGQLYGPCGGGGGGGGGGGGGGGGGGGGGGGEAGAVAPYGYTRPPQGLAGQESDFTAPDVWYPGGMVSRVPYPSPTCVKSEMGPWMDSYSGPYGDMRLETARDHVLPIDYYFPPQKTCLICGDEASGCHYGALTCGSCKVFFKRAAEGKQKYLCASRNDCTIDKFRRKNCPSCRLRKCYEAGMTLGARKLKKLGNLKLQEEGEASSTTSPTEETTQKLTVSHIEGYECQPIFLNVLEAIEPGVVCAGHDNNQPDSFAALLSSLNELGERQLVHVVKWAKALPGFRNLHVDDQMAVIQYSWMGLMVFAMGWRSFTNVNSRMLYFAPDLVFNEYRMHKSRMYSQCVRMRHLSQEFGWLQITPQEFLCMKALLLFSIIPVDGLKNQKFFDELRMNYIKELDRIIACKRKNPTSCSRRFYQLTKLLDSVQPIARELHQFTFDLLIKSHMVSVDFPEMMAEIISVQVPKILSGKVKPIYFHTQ

AR [3] = details: read-out: IC50 range in ICCVAM meta-analysis; cited from earlier work
AR [4] = details: cited from earlier work; remark: listed apart in the source
AR [5] = details: cited from earlier work; remark: listed apart in the source
AR [6] = details: at high concentrations (10^−5 M); cited from earlier work

SMILES: C#CC1(O)CC[C@H]2[C@@H]3CCC4=CC(=O)CC[C@@H]4[C@H]3CC[C@@]21CC (mixture of isomers) [Norgestrel, norgestrel]
- effect on testosterone production in words (H295R cells): increased testosterone production
- EC50 (H295R cells; Homo sapiens, NCI-H295R, read-out: H295R testosterone assay EC50): 730 nM

SMILES: C#C[C@]1(O)CC[C@H]2[C@@H]3CCc4cc(O)ccc4[C@H]3CC[C@@]21C [17α-Ethinylestradiol, 17α-Ethynylestradiol]
- AR antagonist classification in AR-EcoScreen assay (AR [2]): AR antagonist

SMILES: C[C@]12C=CC3=C4CCC(=O)C=C4CC[C@H]3[C@@H]1CC[C@@H]2O [17β-Trenbolone, 17ß-Trenbolone]
- AR agonist activity in words (androgen receptor (AR)): strongly induced autobioluminescence; also recorded: induced autobioluminescent signal exceeding the maximal response of 5α-dihydrotestosterone

SMILES: C[C@]12C[C@H](O)[C@H]3[C@@H](CCC4=CC(=O)CC[C@@]43C)[C@@H]1CC[C@@H]2C(=O)CO [Corticosterone]
- AR agonistic effects in yeast-based reporter assays (AR [4]): failed to elicit positive AR agonistic effects
- AR agonist classification in AR-EcoScreen assay (AR [1]): Positive AR transcriptional activity
- AR transcriptional activity in MDA-kb2 assay (AR [5]): Positive AR transcriptional activity

SMILES: CC(C)C(=O)Nc1ccc([N+](=O)[O-])c(C(F)(F)F)c1 [Flutamide]
- effect on testosterone production in words (H295R cells): did not induce autobioluminescence or change testosterone production
- effect on testosterone production in words (H295R cells; listed as flutamide): did not demonstrate a detectable change in testosterone production

SMILES: CC(C)(O)C(=O)Nc1ccc([N+](=O)[O-])c(C(F)(F)F)c1 [Hydroxyflutamide]
- effect on testosterone production in words (H295R cells): did not alter testosterone production
- effect on testosterone production in words (H295R cells; listed as hydroxyflutamide): did not change testosterone levels
- AR transcriptional activation activity (AR [6]): low AR transcriptional activation activity

SMILES: CC(=O)N1CCN(c2ccc(OCC3COC(Cn4ccnc4)(c4ccc(Cl)cc4Cl)O3)cc2)CC1 (stereo not drawn) [Ketoconazole]
- AR agonism response in yeast assays (AR [4]): positive AR agonism response
- AR agonist classification in AR-EcoScreen assay (AR [1]): negative AR agonist

SMILES: C[C@]12CC[C@H]3[C@@H](CCC4=CC(=O)CC[C@@]43C)[C@@H]1CC[C@@H]2O [Testosterone]
- EC50 (AR [1]): […]
